Results reported in US20250367109A1, “DEVICES, SYSTEMS, AND METHODS FOR IMPROVED BONE REMODELING” (UNIVERSITY OF UTAH RESEARCH FOUNDATION, priority 2024, published 2025).

Assay: local elution of estradiol from implant in left proximal humerus; estradiol concentration in tendon tissue samples by mass spectroscopy
Assay type: in vivo, wild-type rats
Details: one week after implantation into left proximal humerus; compared with right rotator cuff, left and right Achilles tendon; 200 micrograms estradiol load
Description: Drug-eluting implants analogous to drug-eluting implant 200 were comprised of polycaprolactone and estradiol. The drug-eluting implants were in the form of a cylinder 1 mm in diameter and 5 mm long, and loaded with 200 micrograms of estradiol. The drug-eluting implants were implanted into the left proximal humeri of wild-type rats. One week following implantation, the animals were euthanized and tendon tissue samples were collected at the following sites: left rotator cuff (target site), right rotator cuff, left Achilles tendon, and right Achilles tendon. Mass spectroscopy was used to determine the estradiol concentration in the tissue samples, and the results are provided in an estradiol concentration chart 300.

Question: Which “estradiol concentration in left rotator cuff tissue (target site) relative to remote tendon sites” value does the source give for `C[C@]12CC[C@@H]3c4ccc(O)cc4CC[C@H]3[C@@H]1CC[C@@H]2O` [estradiol] here?
Answer: significantly higher local estradiol concentrations at the target region relative to other regions
